Key:
[1] = system: MOLM-13; test: Cytotoxicity against human MOLM-13 cells assessed as reduction in cell viability incubated for 72 hrs by Celltiter-glo luminescent assay; assay type: functional, cell-based; details: MOLM-13, 72 h
[2] = target: Dihydroorotate dehydrogenase (quinone), mitochondrial (Homo sapiens, UniProt Q02127); test: Inhibition of human DHODH using dihydroorotate and CoQ6 as substrate by DCIP dye based spectrophotometry analysis
Sequence of Dihydroorotate dehydrogenase (quinone), mitochondrial (Q02127 whole entry): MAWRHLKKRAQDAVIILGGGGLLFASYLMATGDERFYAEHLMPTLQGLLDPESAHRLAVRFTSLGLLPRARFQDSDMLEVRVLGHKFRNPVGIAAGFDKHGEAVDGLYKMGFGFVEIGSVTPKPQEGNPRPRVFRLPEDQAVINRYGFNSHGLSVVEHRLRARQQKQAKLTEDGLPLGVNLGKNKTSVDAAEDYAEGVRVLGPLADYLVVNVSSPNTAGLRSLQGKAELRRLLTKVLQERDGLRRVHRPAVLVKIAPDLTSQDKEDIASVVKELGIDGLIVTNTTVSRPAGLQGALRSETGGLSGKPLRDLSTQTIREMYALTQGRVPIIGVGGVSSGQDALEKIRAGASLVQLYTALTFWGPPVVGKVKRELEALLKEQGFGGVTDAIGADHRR

Compound `Cc1ccccc1-n1cc(C(C)C)c2cc(-c3ccc(C)c(N)n3)c(F)cc2c1=O` has an IC50 [1] of 20 pM.
Work on `Cc1ccccc1-n1nc(C(C)C)c2cc(-c3cn(C)c(C(C)(C)O)n3)c(F)cc2c1=O` yielded an IC50 [1] of 90 pM.
`Cc1ccccc1-n1cc(C(C)C)c2cc(-c3cn(C)c(C(C)(C)O)n3)c(F)cc2c1=O` gave an IC50 [1] of 80 pM.
`Cc1ccccc1-n1cc(C(C)C)c2cc(-c3nc(C(C)(C)O)n(C)n3)c(F)cc2c1=O` was tested, and the IC50 [1] was 80 pM.
`Cc1ccccc1-n1cc(C(C)C)c2cc(-c3cn(C)c([C@@H](C)O)n3)c(F)cc2c1=O` gave an IC50 [1] of 100 pM.
In the case of `[2H]C([2H])([2H])n1cc(-c2cc3c(C(C)C)cn(-c4ccccc4C)c(=O)c3cc2F)nc1C(C)(C)O`, the IC50 [2] is reported as 540 pM and the IC50 [1] is reported as 40 pM.
